Entries after “also recorded” stand apart in the source; their conditions may differ. Read-outs that look alike come from different tables or passages of the source.
What was measured:
[1] = system: inflammatory cytokines and chemokines; experiment: Inflammatory cytokines and chemokines in serum (multiplex bead array); assay type: in vivo, mice; settings: for Levels of 30 inflammatory cytokines and chemokines: aged female mice (29 month old) vs. aged control and young
Method: The samples were measured for soluble cytokines and chemokines in serum using multiplex bead array technology (MD31).

[2] = system: C57BL6/J mice; settings: for Incidence and severity of aging phenotypes / morbidity (total frailty score): female and male, Cohort-1, 2% w/w diet from 18 months; for Age-related changes in female coat color / hair discoloration: female mice; for Severity of individual frailty phenotypes: grimace, poor coat condition, gait disorder
Description: For the subjective properties of the assessments, all measurements were completely blinded. These assessments indicate age-associated deterioration of health and include evaluation of the animal musculoskeletal system, the vestibulocochlear/auditory systems, the ocular and nasal systems, the digestive system, the urogenital system, the respiratory system, signs of discomfort, body weight and body surface temperature. 0 is assigned if no sign of frailty is observed and the animal is healthy for that phenotype. A moderate phenotype and a severe phenotype is scored 0.5 and 1 respectively. Loss of temperature and weight were scored using standard deviation for the study (Table 2). All the phenotypes were scored as described before by Whitehead, J. C., et al., except for temperature and weight. Temperature and weights scoring: Briefly, for weight and temperature, the new scaling scores were used; Average and standard deviations (STDEV) were calculated sex specifically using our own baseline data sets (data collected before the start of the treatment mice at 18th month age). A decrease in temperature or weight (FIG. 3B, and FIG. 3D) within one STDEV is scored as a (0), a decrease bigger than one STDEV but smaller than 2 STDEV will be scored as a (0.5) and any decrease more than 2 STDEV is scored as a (1).
(§1) Python Software was used to extract all the health span data and create files compatible with R software for analysis. Data were analyzed using R, GraphPad Prism 7 and OASIS 2 software. Log-rank (Mantel-Cox) tests were used to analyze Kaplan-Meier curves, and a fisher's exact test was performed for maximum lifespan analysis (at 90% survival). […] Two-way analysis of variance (ANOVA) with Bonferroni post hoc correction was used for analysis between morbidity curves. The area under curve (AUC) of […] graphs were measured baselining at 18 months of age. The changes in AUC were used to calculate the percent compression of morbidity.
In order to assess healthspan, measurements were applied that are based on a clinically relevant frailty index. The frailty index (FI) consists of 31 phenotypes that are indicators of age-associated health deterioration, with each phenotype scored on a 0, 0.5 or 1 scale, based on its severity. Body weight and surface temperature were collected and converted to the same scoring scales (Table 2). All scorings were conducted in a blinded manner.
The 31-metrics share many characteristics of the human frailty indices and has been reported to progress similarly with aging in mice and humans. Measurements were repeated approximately every eight weeks, providing us with eight and seven sets of data respectively for male and female groups. To establish a baseline clinical assessment, a dataset was collected right before the start of the treatment at 18th months (FIG. 4A-FIG. 4D).
Since the age for onset of age-related phenotypes can be quite heterogeneous in mammals, frailty datasets were plotted not only as a function of chronological time, but also in proportion to the lifespan of each mouse by binning scores within ten percentile (e.g. scores collected between 60% and 70% of the animals' lifespans were binned and plotted at 65%), (FIG. 9A-FIG. 9B). This further aligns assessments with respect to the biologic age of the animal.

[3] = system: C57BL6/J mice; settings: Cohort-1, 2% w/w AKG diet from 18 months of age
Description: (§2) The principle endpoint of health span and lifespan study was natural death or mice found dead at daily inspection or age at euthanasia (for mice deemed unlikely to survive for next 48 hr and are in enormous discomfort). The criteria for euthanasia were based on an independent assessment by a veterinarian, according to AAALAC guidelines and only where the condition of the animal was considered. Severe lethargy, rapid weight loss (over two weeks>20%), severe distended abdomen and body condition score with signs of pain (grimace), inability to move despite the stimuli, severe ulcer or bleeding tumor, sever temperature loss with abnormal breathing rate. Animal found dead or euthanized was necropsied for pathology score. No invasive measurements were performed on this population, n=180 animals (two cohorts of 90 animals). A sacrificed group were purchased at 14 months of age, baselined and grouped the following week. […] Animals were sacrificed and tissues were collected after 3 months of treatment. Food intake and body weight were measured on a biweekly and bimonthly basis for the duration of the study.
as §1

[4] = system: senescence-associated secretory phenotype (SASP) genes; experiment: qRT-PCR of SASP genes in irradiated IMR-90 fibroblasts; assay type: cell-based; settings: 10 Gy ionizing radiation; 1 mM for 10 days
Method: For damage-induced senescence, cells were irradiated with doses of either 0 or 10 Gy of ionizing radiation (IR). Cells were concurrently treated with PBS (control) or 1 mM AKG for 10 days, changing media every 2 days. All assays were performed 10 days post irradiation.
RNA quality and quantity were assessed using NanoDrop™ 1000 spectrophotometer measures (Thermo Scientific). Total cDNAs were synthesized from 500 ng of RNA using random primers and iScript RT reagents following the manufacturer's protocol Superscript II (Invitrogen, Carlsbad, USA). Gene expression was measured from cDNA using the Roche Universal Probe Library system (Indianapolis, Ind., USA). All values were normalized to beta-actin.

[5] = Body weight and food consumption; assay type: in vivo, mice
Description: as §2
Metabolism was measured applying indirect calorimetry. Promethion metabolic cage system-Sable Systems International was used.

[6] = system: IMR-90 fibroblasts; experiment: Senescence formation in irradiated IMR-90 fibroblasts (SA-β-gal, EdU); assay type: cell-based; settings: 10 Gy ionizing radiation; 1 mM for 10 days
Method: IMR-90 fetal lung fibroblasts were obtained from ATCC and were cultured at 37° C. in 3% O2 and 5% CO2. Dulbecco's modified Eagle's media (DMEM) supplemented with 10% fetal bovine serum and streptomycin/penicillin were used. Media was changed every 2 days during the experiment. For damage-induced senescence, cells were irradiated with doses of either 0 or 10 Gy of ionizing radiation (IR). Cells were concurrently treated with PBS (control) or 1 mM AKG for 10 days, changing media every 2 days. All assays were performed 10 days post irradiation.
Cells were stained for the senescence-associated 3-gal (SA-3-gal) marker as described. Non-senescent cells (having undergone fewer than 35 population doublings) were made quiescent by washing with PBS and incubating in DMEM containing 0.2% serum for 4 day. Cultures that had >80% SA-3-gal positive cells and ≤4% EdU positive cells were considered senescent.

[7] = system: C57BL6/J mice; settings: treated group vs. control
Method: Metabolism was measured applying indirect calorimetry. Promethion metabolic cage system-Sable Systems International was used. The system is equipped with GA-3 small mammal gas analyzers for measurements of O2 (consumption) and CO2 (production). Energy expenditure, food intake, water consumption, body weight, physical activity and volunteer exercise were simultaneously recorded over 4 consecutive days (96 hours). Mice were housed individually in metabolic cages and accustomed to their environment a day before the start of recording. Data were analyzed using Sable System Expedata-P Data Analysis Software. Subsequently, CalR software, a free web tool was used for analysis of experiments using indirect calorimetry, to analyze the raw data, generate some plots and run statistical analysis.

[8] = aged mice (29 months old) vs. young and aged control

SMILES: O=C(O)CCC(=O)C(=O)O [AKG, 2-oxopentanedioic acid]
- Levels of 30 inflammatory cytokines and chemokines [1]: general trend of reduction
- Level of IL-3 [1, 8]: do not show an increase
- Level of IL-7 [1, 8]: do not show an increase
- Level of MIP-1β [1, 8]: do not show an increase
- Level of TNFα [1, 8]: do not show an increase
- Compression of morbidity (proportion of life frail) ([2]; both sexes, total frailty scores vs. percentage of lifespan): compresses the morbidity risk into fewer days of life; also recorded: decreases the proportion of life in which the animal is frail
- Incidence and severity of aging phenotypes / morbidity (total frailty score) [2]: extends healthspan and alleviates age-associated frailty
- Age-related changes in female coat color / hair discoloration [2]: prevents age-associated hair discoloration
- Age (days) at 100% ([3]; female): 1116 days
- Age (days) at 100% ([3]; male & female): 1173 days
- Age (days) at 100% ([3]; male): 1173 days
- Range of inflammatory cytokines (proinflammatory SASP) [4]: lowers the proinflammatory SASP
- Body weight preservation (age-related weight loss) ([5]; male mice, second cohort, P value<0.001): preserves body weight; also recorded: better body weight preservation
- Food consumption ([5]; measured for 3 consecutive days at 19, 23 and 28 months, AKG fed vs. control): no significance change
- Senescence formation / senescence growth arrest [6]: without preventing the senescence growth arrest

SMILES: O=C([O-])CCC(=O)C(=O)[O-].[Ca+2] [CaAKG, Calcium alpha-ketoglutarate]
- Levels of 30 inflammatory cytokines and chemokines [1]: largely refractory to these changes
- Level of IL-3 [1, 8]: significant changes
- Incidence and severity of aging phenotypes / morbidity (total frailty score) [2]: decreases incidence and severity of different aging phenotypes and postpones morbidity
- Age-related changes in female coat color / hair discoloration [2]: protection from age-related changes in female coat color was particularly prominent
- Total frailty score, health improvement vs. control ([2]; female, P<0.001, P<0.05): significant improvements after 9 months of treatment and again at 11 months post treatment
- Gait ([2]; females and males close to median life): Gait improvement
- Severity of individual frailty phenotypes ([2]; females: piloerection, alopecia, loss of fur color, grip strength loss, rectal prolapse, body weight loss): significantly decreased
- Total frailty score, health improvement vs. control ([2]; male, persisted until last measurement at 33 months of age, P<0.01, P<0.05): significant health improvement after 11 months
- Severity of individual frailty phenotypes ([2]; males: grip strength loss, vestibular disturbance, loss of menace reflex, hearing loss, eye discharge, poor body condition, tail stiffening, abnormal breathing rate): significantly decreased the severity of multiple aging phenotypes
- Level of carbon dioxide production [7]: significantly lower
- Level of energy expenditure [7]: significantly lower
- Level of oxygen consumption [7]: significantly lower

Reference: patent US20220241229A1, “Methods and Compositions for Altering Senescence Associated Secretory Phenotype” (BUCK INSTITUTE FOR RESEARCH ON AGING, priority 2019, published 2022)
